In patent US11447466B2, “Substituted indole compounds useful as inhibitors of TLR7/8/9” (BRISTOL-MYERS SQUIBB COMPANY, priority 2017, dated 2022):

Columns and labels:
Format in all cases: cell-based
human TLR7 = target: T1, human TLR7 (Homo sapiens, UniProt Q9NYK1); experiment: TLR7 inhibition reporter assay (HEK-Blue SEAP reporter, gardiquimod stimulation); conditions: HEK-Blue cells overexpressing human TLR7, SEAP reporter, gardiquimod 7.5 μM, 22 hour incubation
T1 construct: host or cells: HEK-Blue cells
T1 sequence (Q9NYK1 27-1049): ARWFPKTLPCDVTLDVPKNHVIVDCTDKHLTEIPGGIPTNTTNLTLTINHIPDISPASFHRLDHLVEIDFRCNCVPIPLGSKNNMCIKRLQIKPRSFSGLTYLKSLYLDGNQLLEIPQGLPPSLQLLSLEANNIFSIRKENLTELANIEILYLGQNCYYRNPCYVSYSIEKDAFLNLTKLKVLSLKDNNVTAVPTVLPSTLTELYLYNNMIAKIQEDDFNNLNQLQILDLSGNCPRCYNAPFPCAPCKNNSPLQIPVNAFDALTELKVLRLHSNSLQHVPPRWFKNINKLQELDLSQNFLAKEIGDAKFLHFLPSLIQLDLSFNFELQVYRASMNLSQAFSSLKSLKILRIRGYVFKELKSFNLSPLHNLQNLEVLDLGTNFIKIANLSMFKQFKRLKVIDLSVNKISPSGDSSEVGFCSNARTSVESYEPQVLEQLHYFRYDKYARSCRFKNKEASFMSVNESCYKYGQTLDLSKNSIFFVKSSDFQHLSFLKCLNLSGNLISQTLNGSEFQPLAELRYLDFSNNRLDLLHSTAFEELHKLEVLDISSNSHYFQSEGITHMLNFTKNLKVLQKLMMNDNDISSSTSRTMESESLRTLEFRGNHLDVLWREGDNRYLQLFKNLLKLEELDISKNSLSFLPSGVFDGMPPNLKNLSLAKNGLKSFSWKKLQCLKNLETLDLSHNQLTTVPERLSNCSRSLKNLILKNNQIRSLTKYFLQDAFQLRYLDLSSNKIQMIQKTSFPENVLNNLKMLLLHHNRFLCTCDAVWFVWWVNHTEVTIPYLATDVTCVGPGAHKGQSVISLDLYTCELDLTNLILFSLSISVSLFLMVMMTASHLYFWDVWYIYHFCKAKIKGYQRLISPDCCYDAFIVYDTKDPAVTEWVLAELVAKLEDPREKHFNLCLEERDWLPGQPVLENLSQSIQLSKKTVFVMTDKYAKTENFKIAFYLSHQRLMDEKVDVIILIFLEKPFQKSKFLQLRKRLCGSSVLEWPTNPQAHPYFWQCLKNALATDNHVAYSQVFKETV
In short: (§1)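 Compound treatment: 30 min, RT, 0.05 nM–50 μM final. Agonist: TLR7 gardiquimod 7.5 μM; TLR8 R848 15.9 μM; TLR9 ODN2006 5 nM. Incubation 22 h, 37 °C, 5% CO2. Readout SEAP, HEK-Blue Detection.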

human TLR8 = target: T2, human TLR8 (Homo sapiens, UniProt Q9NR97); experiment: TLR8 inhibition reporter assay (HEK-Blue SEAP reporter, R848 stimulation); conditions: HEK-Blue cells overexpressing human TLR8, SEAP reporter, R848 15.9 μM, 22 hour incubation
T2 construct: host or cells: HEK-Blue cells
T2 sequence (Q9NR97 27-1041): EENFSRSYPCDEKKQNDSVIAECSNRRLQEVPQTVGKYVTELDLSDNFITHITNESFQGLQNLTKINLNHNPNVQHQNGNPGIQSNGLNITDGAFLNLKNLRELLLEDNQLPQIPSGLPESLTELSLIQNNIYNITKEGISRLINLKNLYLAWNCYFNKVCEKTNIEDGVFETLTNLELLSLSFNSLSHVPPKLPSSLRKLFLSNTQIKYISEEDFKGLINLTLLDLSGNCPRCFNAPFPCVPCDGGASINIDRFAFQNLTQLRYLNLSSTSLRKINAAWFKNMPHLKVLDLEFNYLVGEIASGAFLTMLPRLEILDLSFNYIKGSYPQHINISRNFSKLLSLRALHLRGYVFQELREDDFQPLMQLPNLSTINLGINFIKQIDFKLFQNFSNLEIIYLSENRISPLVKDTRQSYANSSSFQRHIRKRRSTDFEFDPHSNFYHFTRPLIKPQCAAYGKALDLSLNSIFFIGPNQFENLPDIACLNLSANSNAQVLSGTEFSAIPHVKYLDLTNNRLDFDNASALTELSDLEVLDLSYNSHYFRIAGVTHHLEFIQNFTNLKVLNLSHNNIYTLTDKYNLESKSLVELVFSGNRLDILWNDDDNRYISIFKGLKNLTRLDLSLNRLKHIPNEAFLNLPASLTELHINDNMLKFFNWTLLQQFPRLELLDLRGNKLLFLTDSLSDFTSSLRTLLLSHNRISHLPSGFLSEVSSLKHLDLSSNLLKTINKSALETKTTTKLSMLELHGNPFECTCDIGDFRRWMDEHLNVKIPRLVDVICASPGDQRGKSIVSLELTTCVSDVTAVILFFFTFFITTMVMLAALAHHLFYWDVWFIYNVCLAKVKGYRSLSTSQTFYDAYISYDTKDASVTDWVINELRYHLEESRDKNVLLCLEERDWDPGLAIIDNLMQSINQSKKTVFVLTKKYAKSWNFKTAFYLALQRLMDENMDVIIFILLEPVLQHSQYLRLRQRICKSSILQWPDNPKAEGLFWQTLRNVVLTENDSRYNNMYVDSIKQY
In short: as §1

human TLR9 = target: T3, human TLR9 (Homo sapiens, UniProt Q9NR96); experiment: TLR9 inhibition reporter assay (HEK-Blue SEAP reporter, ODN2006 stimulation); conditions: HEK-Blue cells overexpressing human TLR9, SEAP reporter, ODN2006 5 nM, 22 hour incubation
T3 construct: host or cells: HEK-Blue cells
T3 sequence (Q9NR96 26-1032): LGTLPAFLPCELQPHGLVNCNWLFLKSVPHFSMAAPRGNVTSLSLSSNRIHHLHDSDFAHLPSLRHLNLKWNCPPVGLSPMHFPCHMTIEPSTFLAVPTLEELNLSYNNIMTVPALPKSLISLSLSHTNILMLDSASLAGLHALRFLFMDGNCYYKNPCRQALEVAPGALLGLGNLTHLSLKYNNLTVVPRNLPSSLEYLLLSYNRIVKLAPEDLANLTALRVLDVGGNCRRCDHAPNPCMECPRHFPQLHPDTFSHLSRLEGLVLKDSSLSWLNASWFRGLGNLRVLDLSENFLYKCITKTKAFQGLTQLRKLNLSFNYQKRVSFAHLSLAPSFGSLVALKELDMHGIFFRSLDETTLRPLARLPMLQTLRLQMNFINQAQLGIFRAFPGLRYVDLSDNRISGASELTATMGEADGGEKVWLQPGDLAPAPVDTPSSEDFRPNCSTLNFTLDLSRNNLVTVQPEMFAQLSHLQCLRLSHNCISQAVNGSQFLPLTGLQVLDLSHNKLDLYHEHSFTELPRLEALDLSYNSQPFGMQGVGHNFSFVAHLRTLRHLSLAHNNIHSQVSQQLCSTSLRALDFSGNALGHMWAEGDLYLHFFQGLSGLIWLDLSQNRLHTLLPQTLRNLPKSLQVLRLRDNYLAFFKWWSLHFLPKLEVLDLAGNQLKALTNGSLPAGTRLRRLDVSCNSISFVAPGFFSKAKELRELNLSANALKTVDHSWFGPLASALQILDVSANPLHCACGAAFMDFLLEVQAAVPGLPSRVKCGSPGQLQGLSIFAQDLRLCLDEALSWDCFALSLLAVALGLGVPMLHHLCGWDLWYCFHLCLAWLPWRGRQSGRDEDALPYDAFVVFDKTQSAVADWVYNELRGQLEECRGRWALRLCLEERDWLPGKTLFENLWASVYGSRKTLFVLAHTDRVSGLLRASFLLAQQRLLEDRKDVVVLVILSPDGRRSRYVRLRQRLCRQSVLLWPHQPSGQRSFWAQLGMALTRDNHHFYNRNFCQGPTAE
In short: as §1

Row | SMILES | IC50 (human TLR7) | IC50 (human TLR8) | IC50 (human TLR9)
1 | Cc1c(-c2[nH]c3ccc(C4CCN(C5COC5)CC4)cc3c2C(C)C)nn(C)c(=O)c1C [Example 203, 6-(3-isopropyl-5-(1-(oxetan-3-yl)piperidin-4-yl)-1H-indol-2-yl)-2,4,5-trimethylpyridazin-3(2H)-one] | 0.272 µM | 0.0287 µM | 16.9 µM
2 | COC(=O)c1cc(-c2[nH]c3ccc(C4CCNCC4)cc3c2C(C)C)cn(C)c1=O [Example 37, methyl 5-(3-isopropyl-5-(piperidin-4-yl)-1H-indol-2-yl)-1-methyl-2-oxo-1,2-dihydropyridine-3-carboxylate] | 0.458 µM | 0.182 µM | 2.43 µM
3 | Cc1c(-c2[nH]c3ccc(C4CCN(C5CCCC5)CC4)cc3c2C(C)C)cn(C)c(=O)c1Cl [Example 97, 3-chloro-5-(5-(1-cyclopentylpiperidin-4-yl)-3-isopropyl-1H-indol-2-yl)-1,4-dimethylpyridin-2(1H)-one] | 0.0052 µM | 0.0097 µM | 2.05 µM
4 | CC(C)c1c(-c2cc(CO)c(=O)n(C)c2)[nH]c2ccc(C3CCNCC3)cc12 [Example 70, 3-(hydroxymethyl)-5-(3-isopropyl-5-(piperidin-4-yl)-1H-indol-2-yl)-1-methylpyridin-2(1H)-one] | 0.0086 µM | 0.0261 µM | 2.45 µM
5 | Cc1c(-c2[nH]c3ccc(C4CCN(CC(C)(C)O)CC4)cc3c2C(C)C)cn(C)c(=O)c1C [Example 315, 5-(5-(1-(2-hydroxy-2-methylpropyl)piperidin-4-yl)-3-isopropyl-1H-indol-2-yl)-1,3,4-trimethylpyridin-2(1H)-one] | 0.0067 µM | 0.0018 µM | 4.94 µM
6 | CCCN1CCC(c2ccc3[nH]c(-c4cn(C)c(=O)c(-c5cnn(C)c5)c4C)c(C(C)C)c3c2)CC1 [Example 333, 5-(3-isopropyl-5-(1-propylpiperidin-4-yl)-1H-indol-2-yl)-1,4-dimethyl-3-(1-methyl-1H-pyrazol-4-yl)pyridin-2(1H)-one] | 0.0922 µM | 0.0111 µM | 3.01 µM
7 | Cc1c(-c2[nH]c3ccc(C4CCN(CC(=O)N(C)C)CC4)cc3c2C(C)C)cn(C)c(=O)c1C [Example 134, 2-(4-(3-isopropyl-2-(1,4,5-trimethyl-6-oxo-1,6-dihydropyridin-3-yl)-1H-indol-5-yl)piperidin-1-yl)-N,N-dimethylacetamide] | 0.0119 µM | 0.0087 µM | 3.46 µM
8 | CCCN1CCC(c2ccc3[nH]c(-c4cc(-c5cncnc5)c(=O)n(C)c4)c(C(C)C)c3c2F)CC1 [Example 258, 5-(4-fluoro-3-isopropyl-5-(1-propylpiperidin-4-yl)-1H-indol-2-yl)-1-methyl-3-(pyrimidin-5-yl)pyridin-2(1H)-one] | 0.0045 µM | 0.0011 µM | 0.832 µM
9 | Cc1cc(-c2[nH]c3ccc(C4CCN(C)CC4)cc3c2C(C)C)cn(C)c1=O [Example 181, 5-(3-isopropyl-5-(1-methylpiperidin-4-yl)-1H-indol-2-yl)-1,3-dimethylpyridin-2(1H)-one] | 0.002 µM | 0.0085 µM | 13.5 µM
10 | CC(C)c1c(-c2cc(-c3cncnc3)c(=O)n(C)c2)[nH]c2ccc(C3CCN(CC4CCOC4)CC3)cc12 (stereo not drawn) [Example 257, 5-(3-isopropyl-5-(1-((tetrahydrofuran-3-yl)methyl)piperidin-4-yl)-1H-indol-2-yl)-1-methyl-3-(pyrimidin-5-yl)pyridin-2(1H)-one] | 0.0156 µM | 0.0011 µM | 1.98 µM
11 | Cc1cc(-c2[nH]c3ccc(C4CCN(C5COC5)CC4)cc3c2C(C)C)cn(C)c1=O [Example 171, 5-(3-isopropyl-5-(1-(oxetan-3-yl)piperidin-4-yl)-1H-indol-2-yl)-1,3-dimethylpyridin-2(1H)-one] | 0.0051 µM | 0.0104 µM | 25.2 µM
12 | Cc1c(-c2[nH]c3ccc(C4CCN(CC(=O)N(C)C)CC4)c(F)c3c2C(C)C)cn(C)c(=O)c1Cl [Example 158, 2-(4-(2-(5-chloro-1,4-dimethyl-6-oxo-1,6-dihydropyridin-3-yl)-4-fluoro-3-isopropyl-1H-indol-5-yl)piperidin-1-yl)-N,N-dimethylacetamide] | 0.0066 µM | 0.0026 µM | 3.53 µM
13 | Cc1cc(-c2cc(-c3[nH]c4ccc(C5CCN(C(C)C)CC5)cc4c3C(C)C)cn(C)c2=O)cnc1F [Example 343, 6′-fluoro-5-(3-isopropyl-5-(1-isopropylpiperidin-4-yl)-1H-indol-2-yl)-1,5′-dimethyl-[3,3′-bipyridin]-2(1H)-one] | 0.0183 µM | 0.0142 µM | 1.17 µM
14 | CC(C)c1c(-c2cc(-c3cncnc3)c(=O)n(C)c2)[nH]c2ccc(C3CCN(C(C)C)CC3)cc12 [Example 244, 5-(3-isopropyl-5-(1-isopropylpiperidin-4-yl)-1H-indol-2-yl)-1-methyl-3-(pyrimidin-5-yl)pyridin-2(1H)-one] | 0.006 µM | 0.0018 µM | 0.954 µM
